The nature of assay [1]: Intrinsic thiol reactivity (kchem), competition with probe 2 for L-glutathione. It is filed as physicochemical. The note with it: Table S5; L-glutathione 500 nM, probe 2 10 µM, 15 h.
The target in a further assay is T1, BlaC (Mycobacterium tuberculosis, UniProt P9WKD3).
T1 construct: made in house; host or cells: E. coli
In words: BlaC fluorogenic inhibition assay with FC5 (dose-response). It counts as biochemical. Particulars: pIC50 BlaC, Table S5 HTS hits; 30 minute inhibitor pre-incubation; two independent repeats. How it is done:
Two types of controls were used. […] In control 2, the BlaC mixture was substituted with the assay buffer. This mixture was incubated for 30 minutes at room temperature without shaking. […] Data were analysed using ActivityBase (IDBS).

Assay [2] concerns the target T2, LdtMt2 (Mycobacterium tuberculosis, UniProt I6Y9J2). The assay is described as follows: biochemical. It counts as binding. Set-up: made in house; host or cells: E. coli. Summed up:
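Thermal shift: 5 μM LdtMt2 preincubated 30 minutes at room temperature with 500 μM inhibitor in 50 mM tris pH 7.5, then SYPRO Orange (6×) added. Fluorescence (ex 492/em 610 nm) followed from 20 to 95 °C in 0.2 °C steps to derive Tm.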

Assay [3] concerns the target T2, LdtMt2. The assay is described as follows: biochemical. It is filed as biochemical. Set-up: made in house; host or cells: E. coli.
Assay [4] concerns the target T2, LdtMt2. The assay is described as follows: Jump dilution assay (reversibility, koff). It is filed as biochemical. Also on record: made in house; host or cells: E. coli. The note with it: read-out: koff (off rate of complex with LdtMt2). How it is done:
LdtMt2 (10 μM final concentration) was incubated with the inhibitor (100 μM final concentration) in the assay buffer (50 mM HEPES, pH 7.2, 0.01% (v/v) Triton X-100) for 2 hours at room temperature, then serially diluted 1000× with assay buffer (final LdtMt2 concentration 10 nM). 20 μL of the diluted mixture was added to a black polystyrene, flat-bottomed 384-well μ-clear plate (clear bottomed, Greiner Bio-One, part number 781096). Probe 2 (final concentration 15 μM) was added using a MultiDrop Combi dispenser (ThermoFisher Scientific). Fluorescence was measured using a PHERAstar plate reader (BMG Labtech) with λex = 480 nm and λem = 520 nm. Readings were taken every 15 s for a period of 5 minutes, using bottom optic measurements. The off rate (koff) was determined using eqn (7).7 [drawing 3] where, P = formed product; Vs = velocity of no-inhibitor control; V0 = velocity of no-enzyme control, and P0 = initial fluorescence.
The half-life of the enzyme–inhibitor complex (t1/2) was calculated using eqn (8).8 [drawing 4]

Where two headings read alike, the source gives them in different places. Some results are limits rather than exact numbers.

Usually ΔTm stands for the shift of the melting midpoint relative to a reference. By koff is commonly meant the first-order rate constant of dissociation.

T2 sequence (I6Y9J2 56-408): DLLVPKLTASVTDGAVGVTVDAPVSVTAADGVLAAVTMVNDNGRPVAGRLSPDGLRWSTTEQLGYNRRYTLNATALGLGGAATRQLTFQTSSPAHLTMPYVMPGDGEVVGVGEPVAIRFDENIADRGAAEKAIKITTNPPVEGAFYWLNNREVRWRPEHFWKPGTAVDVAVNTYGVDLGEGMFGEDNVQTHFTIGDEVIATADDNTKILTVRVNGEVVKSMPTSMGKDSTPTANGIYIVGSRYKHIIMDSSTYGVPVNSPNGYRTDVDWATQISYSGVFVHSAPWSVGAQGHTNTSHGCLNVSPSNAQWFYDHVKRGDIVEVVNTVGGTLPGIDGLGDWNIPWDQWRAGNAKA
T1 sequence (P9WKD3 35-307): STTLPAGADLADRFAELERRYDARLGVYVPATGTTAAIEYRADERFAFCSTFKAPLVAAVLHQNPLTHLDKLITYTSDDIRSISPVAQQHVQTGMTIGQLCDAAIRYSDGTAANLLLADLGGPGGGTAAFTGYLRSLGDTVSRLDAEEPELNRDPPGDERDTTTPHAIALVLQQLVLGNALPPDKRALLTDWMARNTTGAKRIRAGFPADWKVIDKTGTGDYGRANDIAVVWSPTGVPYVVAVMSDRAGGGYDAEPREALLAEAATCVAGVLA

On to `CCOc1ccc(CN2C(=O)C(=O)c3cc(Br)cc(C)c32)cc1OC` [Compound 16], for which, in assay [1], the “kchem (apparent intrinsic thiol reactivity)” value was under 0.08 M⁻¹ s⁻¹. Moreover, the IC50 against BlaC is 36300 nM; at LdtMt2 [3] (Table S5 HTS hits, 30 minute inhibitor pre-incubation, two independent repeats, read-out: pIC50 LdtMt2 (converted)), 178 nM; on LdtMt2 [3] (Table S8, inhibitor pre-incubation time 0 min, read-out: pIC50, 0 min (converted)), 302 nM; at LdtMt2 [3] (Table S8, inhibitor pre-incubation time 120 min, read-out: pIC50, 120 min (converted)) it was 407 nM; on LdtMt2 [3] (pIC50, 10 min, Table S8, inhibitor pre-incubation time 10 min), 363 nM; against LdtMt2 [3] (pIC50, 60 min, Table S8, inhibitor pre-incubation time 60 min) it was 372 nM. In addition, the “Tm: melting point of LdtMt2 after pre-incubation with the compound” value at LdtMt2 [2] (5 µM LdtMt2, 500 µM inhibitor, SYPRO Orange, 50 mM Tris pH 7.5) came to 46.8 ± 0.00 °C. Besides, the ΔTm at 500 µM on LdtMt2 [2] (read-out: ΔTm: difference in melting point of LdtMt2 relative to unreacted LdtMt2 (43.8 °C)) was determined as 3 °C. The “LE (ligand efficiency)” value at LdtMt2 [3] (Table S5, for LdtMt2) is given as 0.45. Besides, the koff on LdtMt2 [4] was 0.0286 s⁻¹.

The record behind these values is article PMC10321483 (Chemical Science, 2023).
